This passage reports TGI results from PubChem BioAssay (NCI).

Holding throughout (assay): NCI tumour cell line growth inhibition, 48 h
Assay [1] relates to CAKI-1 renal.
The test system of assay [2] is HOP-62 NSCLC.
Assay [3] concerns NCI-H522 lung.
For assay [4], the system named is OVCAR-8 ovarian.
In assay [5] the test system is SNB-19 CNS.
Assay [6] concerns SW-620 colon.
Assay [7] deals with HCT-15 colon.
Assay [8] concerns HT29 colon.
The test system of assay [9] is SK-MEL-28 melanoma.
Assay [10] has as its system PC-3 prostate.

The structures appear in SMILES notation.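 Compound exposure: 48 hours, 5 concentrations, 96-well plates. TGI marks complete inhibition of growth.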

For the compound `O=c1c2ccccc2oc2ccccc12` (tested in a mixture with another compound), the TGI in assay [1], in assay [2], in [3], in assay [4], in [5] and in assay [6] was greater than 100 µM throughout.
As to `O=C(O)c1c2c(cc3c(=O)c4ccccc4[nH]c13)CCCC2`, the TGI in [7], in [2], in assay [8], in [4], in [9] and in assay [5] was greater than 100 µM each time. Moreover, the TGI in assay [6] was greater than 100 µM.
For `O=c1cc[nH]cc1-c1c[nH]ccc1=O`, the TGI in assay [1], in assay [7], in assay [8], in [3], in assay [4] and in [9] was greater than 100 µM each time. For the same compound, the TGI in assay [6] is greater than 100 µM.
Regarding `COC(=O)/C(C#N)=C1\CCC(OC)N1C` (configuration not stated), the TGI in assay [1], in [7], in [2], in assay [8], in [3] and in assay [4] was greater than 100 µM throughout. Also, the TGI in assay [9], in assay [5] and in assay [6] was greater than 100 µM each time.
For the compound `CN1CCN=C1c1nnn(-c2ccc([N+](=O)[O-])cc2)c1-c1ccccc1`, the TGI in assay [1], in assay [7], in assay [2], in assay [8], in assay [3] and in assay [4] was greater than 100 µM throughout. The TGI in assay [9], in assay [5] and in assay [6] was greater than 100 µM throughout.
Turning to `CS(=O)(=O)c1ccc(COP(N)(=O)N(CCCl)CCCl)cc1` (configuration not stated), the TGI in assay [1], in [7], in [2], in assay [8], in [3] and in assay [4] was greater than 100 µM in each case. Moreover, the TGI in [9], in assay [5] and in assay [6] was greater than 100 µM in each case.
Consider `O=[N+]([O-])c1cc(/C=N\NS(=O)(=O)c2ccc(Cl)cc2)c(O)c([N+](=O)[O-])c1`, for which the TGI in [1] was greater than 100 µM; in [7], 53.1 µM; in assay [2], greater than 100 µM; in [8], 58.9 µM; in assay [3], 52.4 µM; in [4], 64.5 µM. The TGI is greater than 100 µM in [9], 79.5 µM in [5] and greater than 100 µM in assay [6].
With `C=CCC12CC(=O)CCC1c1ccc(OC)cc1C2=O` (configuration not stated), the TGI in assay [1], in [7], in [2], in assay [8], in assay [3] and in assay [4] was greater than 100 µM each time. Further, the TGI in assay [9], in assay [5] and in assay [6] was greater than 100 µM throughout.
With `COc1cc2c(cc1OC)C(C(CBr)CBr)N(C1CCCC1)CC2` (configuration not stated), the TGI in [1], in [7], in assay [2], in [8], in assay [3] and in [4] was greater than 100 µM in each case. Besides, the TGI in [9], in assay [5] and in assay [6] was greater than 100 µM throughout.
As for `C1CSC[C@H]2COC[C@@H](CSCCS1)S2`, the TGI in assay [7], in assay [2], in assay [8], in [3], in [4] and in assay [10] was greater than 100 µM each time. Also, the TGI in assay [9], in assay [5] and in assay [6] was greater than 100 µM in each case.
In the case of `Cc1ccc(N2C(=O)/C(=C/c3ccc(N(CCC#N)CCC#N)cc3)N=C2COc2ccc(Cl)cc2Cl)cc1`, the TGI in assay [1], in assay [7], in [2], in assay [8], in assay [3] and in assay [4] was greater than 100 µM each time. In addition, the TGI in [9], in [5] and in assay [6] was greater than 100 µM each time.
As for `CC(C)N(C(=O)C12C3C4C5(C(=O)O)C(C1C35I)C42C(=O)O)C(C)C` (configuration not stated), the TGI in assay [7], in assay [2], in [8], in assay [3], in assay [4] and in assay [9] was greater than 100 µM each time. Besides, the TGI in assay [5] and in assay [6] was greater than 100 µM throughout.
Consider `COc1ccc(-c2cc3ccccc3[nH]c2=O)cc1OC`, for which the TGI in [1], in assay [7], in assay [2], in assay [8], in assay [3] and in [4] was greater than 100 µM throughout. Moreover, the TGI in [9], in assay [5] and in [6] was greater than 100 µM each time.
As for `CCC1CCCCN1CC(C(C)=O)C(c1ccccc1)c1c(O)c2ccccc2oc1=O` (configuration not stated), the TGI in [1], in assay [7], in [2], in [8], in assay [3] and in assay [4] was greater than 100 µM in each case. Also, the TGI in assay [9], in assay [5] and in [6] was greater than 100 µM throughout.
In the case of `CCCCCCC(=O)C/C(CCC(=O)N(Cc1ccccc1)Cc1ccccc1)=N\NC(N)=O`, the TGI in [1], in assay [7], in assay [2], in [8], in assay [3] and in assay [4] was greater than 100 µM throughout. For the same compound, the TGI in assay [9], in [5] and in assay [6] was greater than 100 µM in each case.
